Here are results for eight compounds from ChEMBL document CHEMBL1781914, “Syntheses and initial evaluation of a series of indolo-fused heterocyclic inhibitors of the polymerase enzyme (NS5B) of the hepatitis C virus” (Bioorg Med Chem Lett, 2011).

pEC50, pIC50: −log10 of the molar value.

The test system of data set [1] is Hepatitis C virus. The data set is described as follows: Inhibition of HCV genotype 1b NS5B polymerase expressed in Escherichia coli BL21(DE3) after 60 mins by FRET assay. The note with it: BL21-DE3, 1 h. Details: species or system Hepatitis C virus subtype 1b.
The test system of data set [2] is Hepatitis C virus. The data set is described as follows: Antiviral activity against HCV infected in human Huh7 cells assessed as inhibition of viral replication by luciferase assay. Particulars: Huh-7. The class given is functional, organism-based, Hepacivirus hominis.
The nature of data set [3]: Oral bioavailability in rat. The data set is classed as ADME, organism-based. Particulars: in vivo.
Data set [4] is described as follows: AUC in iv and po dosed rat. The data set is classed as ADME, organism-based. Particulars: plasma.
The nature of data set [5]: Drug clearance in rat at 2 mg/kg, iv. Particulars: in vivo. Set-up: dose 2 mg/kg, route intravenous. The class given is ADME, organism-based.

What is called pIC50 is the IC50 on a negative log10 scale, so that one unit is a factor of ten. Read a high pIC50 as a low IC50. For orientation: pEC50 means the EC50 on a negative log10 scale, so that one unit is a factor of ten. On to `O=C(O)c1ccc2c(C3CCCCC3)c3n(c2c1)CCCc1ccccc1-3`, for which, in data set [1], the pIC50 was 6.08. In addition, in data set [2], the pEC50 was 6.15.

By bioavailability is commonly meant dose-corrected exposure relative to a reference, in per cent. Lower therefore signals poor availability. By AUC is commonly meant concentration integrated over time. Low values mean less exposure, high ones more exposure. In general, clearance refers to the volume of plasma or blood freed of the substance per unit of time. High values mean a high capacity for elimination, low ones a low capacity for elimination. `O=C(O)/C=C/c1ccc(OC(=O)C2(NC(=O)c3ccc4c(C5CCCCC5)c5n(c4c3)CCCCNc3ccccc3-5)CCCC2)cc1` had a bioavailability in data set [3] of 12.3%. For the same compound, the AUC in data set [4] was 3.61 µM·h. The compound further registered a clearance in data set [5] of 8.7 mL/min/kg. This compound also had a negative logarithm of the IC50 (pIC50) in data set [1] of 7.05. Further, the pEC50 in data set [2] was 7.70.

`O=C(O)c1ccc2c(C3CCCCC3)c3n(c2c1)CCOc1ccccc1-3` showed a pIC50 in data set [1] of 6.16. In data set [2], the negative logarithm of the EC50 (pEC50) is 6.23.

In data set [3], `O=C(O)/C=C/c1ccc(OC(=O)C2(NC(=O)c3ccc4c(C5CCCCC5)c5n(c4c3)CCOc3ccccc3-5)CCCC2)cc1` had a bioavailability of 5%. In addition, in data set [4], the AUC is 0.79 µM·h. The compound further came in with a clearance in data set [5] of 17 mL/min/kg. For the same compound, the pIC50 in data set [1] is 7.52. In data set [2], the pEC50 is 8.00.

Regarding `O=C1Cn2c(c(C3CCCCC3)c3ccc(C(=O)O)cc32)-c2ccccc2N1`, the bioavailability in data set [3] turned out to be 17.6%. The pIC50 in data set [1] is 7.15. The pEC50 in data set [2] is 6.62.

Regarding `O=C(O)/C=C/c1ccc(OC(=O)C2(NC(=O)c3ccc4c(C5CCCCC5)c5n(c4c3)CCCc3ccccc3-5)CCCC2)cc1`, the bioavailability in data set [3] stood at 8%. Further, the AUC in data set [4] amounted to 0.28 µM·h. Moreover, the clearance in data set [5] came to 250 mL/min/kg. The same compound showed a pIC50 in data set [1] of 7.52. The pEC50 in data set [2] is 7.70.

Regarding `O=C(O)c1ccc2c(C3CCCCC3)c3n(c2c1)CCCCNc1ccccc1-3`, the pIC50 in data set [1] was 6.22. Also, the pEC50 in data set [2] was 6.57.

Take `O=C(O)/C=C/c1ccc(OC(=O)C2(NC(=O)c3ccc4c(C5CCCCC5)c5n(c4c3)CC(=O)Nc3ccccc3-5)CCCC2)cc1`: the bioavailability in data set [3] was 3%. The same compound had an AUC in data set [4] of 0.66 µM·h. In data set [5], this compound came in with a clearance of 13 mL/min/kg. In data set [1], this compound showed a pIC50 of 7.70. In addition, the pEC50 in data set [2] was 8.00.
